Data on 8 compounds can be found in PubChem BioAssay (NCI).

Structures are written as SMILES.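 1) Cells in 96-well plates. 2) Compound, 48 h, 5 concentrations. 3) Linear interpolation between surrounding doses. 4) Unreached endpoint = highest concentration. TGI marks complete inhibition of growth.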

Test systems include A549 NSCLC; ACHN renal; CAKI-1 renal; CCRF-CEM leukemia; COLO 205 colon; HCT-15 colon; HL-60(TB) leukemia; IGROV1 ovarian; K-562 leukemia; MALME-3M melanoma; MOLT-4 leukemia; NCI-H23 lung; RXF 393 renal; SK-OV-3 ovarian; SW-620 colon; TK-10 renal; U251 CNS; UACC-257 melanoma; UACC-62 melanoma; UO-31 renal.
What all share (assay): inhibition of tumour cell growth, NCI panel, 48 h

As for `Cc1ccc(Nc2nc(NS(=O)(=O)c3cc(C(=O)Nc4ccc(Cl)cc4)c(Cl)cc3S)n[nH]2)cc1`, the TGI with A549 NSCLC, in the experiment on ACHN renal, in the experiment with CAKI-1 renal, in the experiment with CCRF-CEM leukemia, in the experiment on COLO 205 colon and in the experiment with HCT-15 colon was greater than 100 µM throughout. The TGI with HL-60(TB) leukemia, in the experiment with IGROV1 ovarian, with K-562 leukemia, in the experiment on MALME-3M melanoma, with MOLT-4 leukemia and with NCI-H23 lung was greater than 100 µM each time. Moreover, the TGI in the experiment with RXF 393 renal, with SK-OV-3 ovarian, in the experiment on SW-620 colon, with TK-10 renal, with U251 CNS and in the experiment on UACC-257 melanoma was greater than 100 µM throughout. Further, the TGI in the experiment on UACC-62 melanoma and with UO-31 renal was greater than 100 µM in each case.
On to `NC(=S)N/N=C1\c2ccccc2CCC1CCC1(O)CCc2ccccc2C1=O` (configuration not stated), for which the TGI was greater than 100 µM in the experiment on A549 NSCLC; greater than 100 µM in the experiment with ACHN renal; greater than 100 µM in the experiment on CAKI-1 renal; 86 µM in the experiment on CCRF-CEM leukemia; 36.7 µM in the experiment with COLO 205 colon; greater than 100 µM in the experiment on HCT-15 colon. Besides, the TGI in the experiment with HL-60(TB) leukemia is 20.6 µM; in the experiment on IGROV1 ovarian, greater than 100 µM; in the experiment on MALME-3M melanoma, 36.7 µM; in the experiment with MOLT-4 leukemia, 88.2 µM; in the experiment with NCI-H23 lung, 87 µM; in the experiment with RXF 393 renal, 36.3 µM. For the same compound, the TGI was greater than 100 µM in the experiment with SK-OV-3 ovarian; greater than 100 µM in the experiment with SW-620 colon; 54.3 µM with TK-10 renal; greater than 100 µM in the experiment on U251 CNS; 33.3 µM with UACC-257 melanoma; 31.7 µM with UACC-62 melanoma. In the experiment on UO-31 renal, this compound registered a TGI of 29.4 µM.
Turning to `COc1ccc(-c2c3c(nc4nc(SC)nc(SC)c24)CCCC3)cc1OC`, the TGI in the experiment on A549 NSCLC is greater than 100 µM; in the experiment on ACHN renal it was greater than 100 µM; in the experiment on CAKI-1 renal it was greater than 100 µM; in the experiment with CCRF-CEM leukemia it was 90.2 µM; in the experiment with COLO 205 colon it was greater than 100 µM; with HCT-15 colon it was greater than 100 µM. For the same compound, the TGI in the experiment on HL-60(TB) leukemia was 51.4 µM; in the experiment with IGROV1 ovarian it was greater than 100 µM; in the experiment with K-562 leukemia, greater than 100 µM; with MALME-3M melanoma, greater than 100 µM; in the experiment on MOLT-4 leukemia it was greater than 100 µM; in the experiment with NCI-H23 lung, greater than 100 µM. Moreover, the TGI in the experiment on RXF 393 renal, with SK-OV-3 ovarian, in the experiment on SW-620 colon, with TK-10 renal, with U251 CNS and in the experiment on UACC-257 melanoma was greater than 100 µM in each case. The TGI in the experiment on UACC-62 melanoma and with UO-31 renal was greater than 100 µM in each case.
Take `CCc1nnc(-c2nsc3ccccc23)s1`: the TGI with A549 NSCLC, in the experiment with ACHN renal, in the experiment with CCRF-CEM leukemia, with COLO 205 colon, in the experiment on HCT-15 colon and with HL-60(TB) leukemia was greater than 100 µM in each case. Moreover, the TGI in the experiment with IGROV1 ovarian, in the experiment with K-562 leukemia, in the experiment with MOLT-4 leukemia, in the experiment with NCI-H23 lung, with RXF 393 renal and with SW-620 colon was greater than 100 µM each time. For the same compound, the TGI in the experiment with TK-10 renal, in the experiment on U251 CNS, in the experiment with UACC-257 melanoma, in the experiment with UACC-62 melanoma and with UO-31 renal was greater than 100 µM in each case.
Take `O=C(NN1C(=O)CSC1c1ccc(C(F)(F)F)cc1)c1ccncc1` (configuration not stated): the TGI in the experiment on A549 NSCLC, in the experiment with CAKI-1 renal, with CCRF-CEM leukemia, in the experiment on HCT-15 colon, with HL-60(TB) leukemia and with IGROV1 ovarian was greater than 100 µM throughout. Moreover, the TGI with K-562 leukemia, in the experiment on MALME-3M melanoma, in the experiment on MOLT-4 leukemia, in the experiment on NCI-H23 lung, with RXF 393 renal and with SK-OV-3 ovarian was greater than 100 µM in each case. Besides, the TGI in the experiment on SW-620 colon, with U251 CNS, in the experiment on UACC-257 melanoma, with UACC-62 melanoma and with UO-31 renal was greater than 100 µM in each case.
As to `CC(c1ccccc1)/[N+]([O-])=C/c1ccccc1` (configuration not stated), the TGI in the experiment on A549 NSCLC, with ACHN renal, with CCRF-CEM leukemia, with COLO 205 colon, in the experiment on HL-60(TB) leukemia and with IGROV1 ovarian was greater than 100 µM throughout. In addition, the TGI in the experiment with K-562 leukemia, in the experiment on MOLT-4 leukemia, in the experiment on NCI-H23 lung, in the experiment on RXF 393 renal, in the experiment with SK-OV-3 ovarian and in the experiment with SW-620 colon was greater than 100 µM in each case. Besides, the TGI in the experiment with TK-10 renal, in the experiment with U251 CNS, in the experiment on UACC-257 melanoma and with UO-31 renal was greater than 100 µM throughout.
As to `CC(CCC(=O)O)C1CCC2C3C(O)CC4CC(O)CCC4(C)C3CC(O)C12C` (configuration not stated), the TGI in the experiment on A549 NSCLC, in the experiment on ACHN renal, in the experiment on CAKI-1 renal, in the experiment with CCRF-CEM leukemia, in the experiment on COLO 205 colon and with HCT-15 colon was greater than 100 µM each time. Moreover, the TGI in the experiment with HL-60(TB) leukemia, with IGROV1 ovarian, in the experiment with K-562 leukemia, in the experiment on MALME-3M melanoma, in the experiment with MOLT-4 leukemia and in the experiment on NCI-H23 lung was greater than 100 µM each time. Further, the TGI with RXF 393 renal, in the experiment on SK-OV-3 ovarian, in the experiment with SW-620 colon, with TK-10 renal, with U251 CNS and with UACC-257 melanoma was greater than 100 µM each time. Also, the TGI in the experiment on UACC-62 melanoma and in the experiment on UO-31 renal was greater than 100 µM in each case.
In the case of `CN1CCN(c2cc(-c3cc4ccccc4o3)oc(=O)c2C#N)CC1`, the TGI with A549 NSCLC, with ACHN renal, in the experiment with CAKI-1 renal, with CCRF-CEM leukemia, in the experiment with COLO 205 colon and in the experiment on HCT-15 colon was greater than 100 µM in each case. The TGI with HL-60(TB) leukemia, with IGROV1 ovarian, in the experiment with K-562 leukemia, in the experiment with MALME-3M melanoma, in the experiment on MOLT-4 leukemia and in the experiment with NCI-H23 lung was greater than 100 µM each time. Further, the TGI in the experiment with RXF 393 renal, in the experiment with SW-620 colon, in the experiment on TK-10 renal, in the experiment on U251 CNS, in the experiment on UACC-257 melanoma and with UO-31 renal was greater than 100 µM in each case.
